From patent US20220267352A1, “RAPAMYCIN ANALOGS AND USES THEREOF” (Anakuria Therapeutics, Inc., priority 2021, published 2022)

test system: p-p70 S6 Kinase (Thr389) in MCF-7 cells; test: AlphaLISA Ultra pS6K1 assay; type: cell-based; conditions: Homo sapiens, 1.5 h; MCF7 cells, 90 min
Description: Example 55: AlphaLISA Ultra pS6K1 Assay
(§1) Assay Protocol: • 1. Seed MCF-7 cells in Corning 3701 plate and incubate for 20˜24 hour. 12,000˜16,000 cells will be seeded in 36 μL medium per well. • 2. Change the culture medium with fresh medium and incubate for another 2 hours. • 3. Add 12 μL (4×) compounds into the cell plate by HAMILTON. Final DMSO concentration is 0.5%. Incubate for 90 minutes. • 4. Aspirate 38 μL by HAMILTON, 10 μL rest per well. • 5. Add 10 μL 2× lysis buffer using HAMILTON; total volume in wells is 20 μL. Allow cells to shake for 30 min. Cover plate by plastic foil and store plate at −80° C. up to analysis. • 6. Thaw cell lysate at RT and transfer 10 μL lysate to assay plate (Optiplate-384). • 7. Add 5 μL acceptor beads into assay plate and incubation for 2 hours • 8. Add 5 μL donor beads and incubation for 2 hours • 9. Count the plate by EnSpire Multimode Plate Reader

Compound	IC50 [µM]
CO[C@@H]1C[C@H](C[C@@H](C)[C@@H]2CC(=O)[C@H](C)/C=C(\C)[C@@H](O)[C@@H](OC)C(=O)[C@H](C)C[C@H](C)/C=C/C=C/C=C(\C)[C@H](OCCOC3COC3)C[C@@H]3CC[C@@H](C)[C@@](O)(O3)C(=O)C(=O)N3CCCC[C@H]3C(=O)O2)CC[C@H]1O [I-71, (1R,9S,12S,15R,16E,18R,19R,21R,23S,24E,26E,28E,30R,32S,35R)-1,18-dihydroxy-12-[(1R)-2-[(1S,3R,4R)-4-hydroxy-3-methoxy-cyclohexyl]-1-methyl-ethyl]-19-methoxy-15,17,21,23,29,35-hexamethyl-30-[2-(oxetan-3-yloxy)ethoxy]-11,36-dioxa-4-azatricyclo[30.3.1.0^4,9]hexatriaconta-16,24,26,28-tetraene-2,3,10,14,20-pentone]	0.001 to 0.01
CO[C@@H]1C[C@H](C[C@@H](C)[C@@H]2CC(=O)[C@H](C)/C=C(\C)[C@@H](O)[C@@H](OC)C(=O)[C@H](C)C[C@H](C)/C=C/C=C/C=C(\C)[C@@H](OCCOC3COC3)C[C@@H]3CC[C@@H](C)[C@@](O)(O3)C(=O)C(=O)N3CCCC[C@H]3C(=O)O2)CC[C@H]1O [I-72, (1R,9S,12S,15R,16E,18R,19R,21R,23S,24E,26E,28E,30S,32S,35R)-1,18-dihydroxy-12-[(1R)-2-[(1S,3R,4R)-4-hydroxy-3-methoxy-cyclohexyl]-1-methyl-ethyl]-19-methoxy-15,17,21,23,29,35-hexamethyl-30-[2-(oxetan-3-yloxy)ethoxy]-11,36-dioxa-4-azatricyclo[30.3.1.0^4,9]hexatriaconta-16,24,26,28-tetraene-2,3,10,14,20-pentone]	< 0.001
CO[C@@H]1/C(C)=C/[C@@H](C)C(=O)C[C@@H]([C@H](C)C[C@@H]2CC[C@@H](OP(C)(C)=O)[C@H](OC)C2)OC(=O)[C@@H]2CCCCN2C(=O)C(=O)[C@]2(O)O[C@@H](CC[C@H]2C)CC(OCCOCCOC2COC2)/C(C)=C/C=C/C=C/[C@@H](C)C[C@@H](C)C(=O)[C@@H]1OC (stereo partly drawn) [I-73, (1R,9S,12S,15R,16E,18R,19R,21R,23S,24E,26E,28E,32S,35R)-12-[(1R)-2-[(1S,3R,4R)-4-dimethylphosphoryloxy-3-methoxy-cyclohexyl]-1-methyl-ethyl]-1-hydroxy-18,19-dimethoxy-15,17,21,23,29,35-hexamethyl-30-[2-[2-(oxetan-3-yloxy)ethoxy]ethoxy]-11,36-dioxa-4-azatricyclo[30.3.1.04,9]hexatriaconta-16,24,26,28-tetraene-2,3,10,14,20-pentone]	0.01 to 0.1
CO[C@@H]1C[C@H](C[C@@H](C)[C@@H]2CC(=O)[C@H](C)/C=C(\C)[C@@H](O)[C@@H](OC)C(=O)[C@H](C)C[C@H](C)/C=C/C=C/C=C(\C)C(OCc3cnccn3)C[C@@H]3CC[C@@H](C)[C@@](O)(O3)C(=O)C(=O)N3CCCC[C@H]3C(=O)O2)CC[C@H]1OCCO (stereo partly drawn) [I-67, (1R,9S,12S,15R,16E,18R,19R,21R,23S,24E,26E,28E,32S,35R)-1,18-dihydroxy-12-[(1R)-2-[(1S,3R,4R)-4-(2-hydroxyethoxy)-3-methoxy-cyclohexyl]-1-methyl-ethyl]-19-methoxy-15,17,21,23,29,35-hexamethyl-30-(pyrazin-2-ylmethoxy)-11,36-dioxa-4-azatricyclo[30.3.1.0^4,9]hexatriaconta-16,24,26,28-tetraene-2,3,10,14,20-pentone]	< 0.001

Continued, values first:

IC50 [µM]	Compound
< 0.001	COCCO[C@@H]1CC[C@@H](C[C@@H](C)[C@@H]2CC(=O)[C@H](C)/C=C(\C)[C@@H](O)[C@@H](OC)C(=O)[C@H](C)C[C@H](C)/C=C/C=C/C=C(\C)C(OCc3cnccn3)C[C@@H]3CC[C@@H](C)[C@@](O)(O3)C(=O)C(=O)N3CCCC[C@H]3C(=O)O2)C[C@H]1OC (stereo partly drawn) [I-68, (1R,9S,12S,15R,16E,18R,19R,21R,23S,24E,26E,28E,32S,35R)-1,18-dihydroxy-19-methoxy-12-[(1R)-2-[(1S,3R,4R)-3-methoxy-4-(2-methoxyethoxy)cyclohexyl]-1-methyl-ethyl]-15,17,21,23,29,35-hexamethyl-30-(pyrazin-2-ylmethoxy)-11,36-dioxa-4-azatricyclo[30.3.1.0^4,9]hexatriaconta-16,24,26,28-tetraene-2,3,10,14,20-pentone]
0.001 to 0.01	COCCO[C@@H]1CC[C@@H](C[C@@H](C)[C@@H]2CC(=O)[C@H](C)/C=C(\C)[C@@H](O)[C@@H](OC)C(=O)[C@H](C)C[C@H](C)/C=C/C=C/C=C(\C)[C@H](OC[C@H]3COCCO3)C[C@@H]3CC[C@@H](C)[C@@](O)(O3)C(=O)C(=O)N3CCCC[C@H]3C(=O)O2)C[C@H]1OC [I-63, (1R,9S,12S,15R,16E,18R,19R,21R,23S,24E,26E,28E,30R,32S,35R)-30-[[(2R)-1,4-dioxan-2-yl]methoxy]-1,18-dihydroxy-19-methoxy-12-[(1R)-2-[(1S,3R,4R)-3-methoxy-4-(2-methoxyethoxy)cyclohexyl]-1-methyl-ethyl]-15,17,21,23,29,35-hexamethyl-11,36-dioxa-4-azatricyclo[30.3.1.0^4,9]hexatriaconta-16,24,26,28-tetraene-2,3,10,14,20-pentone]
0.001 to 0.01	COCCO[C@@H]1CC[C@@H](C[C@@H](C)[C@@H]2CC(=O)[C@H](C)/C=C(\C)[C@@H](O)[C@@H](OC)C(=O)[C@H](C)C[C@H](C)/C=C/C=C/C=C(\C)[C@H](OC[C@@H]3COCCO3)C[C@@H]3CC[C@@H](C)[C@@](O)(O3)C(=O)C(=O)N3CCCC[C@H]3C(=O)O2)C[C@H]1OC [I-65, (1R,9S,12S,15R,16E,18R,19R,21R,23S,24E,26E,28E,30R,32S,35R)-30-[[(2S)-1,4-dioxan-2-yl]methoxy]-1,18-dihydroxy-19-methoxy-12-[(1R)-2-[(1S,3R,4R)-3-methoxy-4-(2-methoxyethoxy)cyclohexyl]-1-methyl-ethyl]-15,17,21,23,29,35-hexamethyl-11,36-dioxa-4-azatricyclo[30.3.1.0^4,9]hexatriaconta-16,24,26,28-tetraene-2,3,10,14,20-pentone]

test system: p-Akt 1/2/3 (Ser473) in MCF-7 cells; test: AlphaLISA Ultra pAKT assay; type: cell-based; conditions: Homo sapiens, 1.5 h; MCF7 cells, 90 min
Description: Example 56: AlphaLISA Ultra pAKT Assay
as §1, with “1.” for “1. Seed”, “16,000˜20,000” for “12,000˜16,000”, “90 minutes.” for “2 hours.”, “Incubate for 90 minutes. • 4.” left out

IC50 [µM]	Compound
≥ 1	CO[C@@H]1/C(C)=C/[C@@H](C)C(=O)C[C@@H]([C@H](C)C[C@@H]2CC[C@@H](OCCO)[C@H](OC)C2)OC(=O)[C@@H]2CCCCN2C(=O)C(=O)[C@]2(O)O[C@@H](CC[C@H]2C)CC(OCCOC2COC2)/C(C)=C/C=C/C=C/[C@@H](C)C[C@@H](C)C(=O)[C@@H]1OC (stereo partly drawn) [I-87, (3S,6R,7E,9R,10R,12R,14S,15E,17E,19E,23S,26R,27R,34aS)-27-hydroxy-3-((R)-1-((1S,3R,4R)-4-(2-hydroxyethoxy)-3-methoxycyclohexyl)propan-2-yl)-9,10-dimethoxy-6,8,12,14,20,26-hexamethyl-21-(2-(oxetan-3-yloxy)ethoxy)-9,10,12,13,14,21,22,23,24,25,26,27,32,33,34,34a-hexadecahydro-3H-23,27-epoxypyrido[2,1-c][1]oxa[4]azacyclohentriacontine-1,5,11,28,29(4H,6H,31H)-pentaone]
≥ 1	CO[C@@H]1/C(C)=C/[C@@H](C)C(=O)C[C@@H]([C@H](C)C[C@@H]2CC[C@@H](OP(C)(C)=O)[C@H](OC)C2)OC(=O)[C@@H]2CCCCN2C(=O)C(=O)[C@]2(O)O[C@@H](CC[C@H]2C)CC(OCC2COCCO2)/C(C)=C/C=C/C=C/[C@@H](C)C[C@@H](C)C(=O)[C@@H]1OC (stereo partly drawn) [I-24, (1R,2R,4S)-4-((2R)-2-((3S,6R,7E,9R,10R,12R,14S,15E,17E,19E,23S,26R,27R,34aS)-21-((1,4-dioxan-2-yl)methoxy)-27-hydroxy-9,10-dimethoxy-6,8,12,14,20,26-hexamethyl-1,5,11,28,29-pentaoxo-1,4,5,6,9,10,11,12,13,14,21,22,23,24,25,26,27,28,29,31,32,33,34,34a-tetracosahydro-3H-23,27-epoxypyrido[2,1-c][1]oxa[4]azacyclohentriacontin-3-yl)propyl)-2-methoxycyclohexyl dimethylphosphinate]
